Results on five compounds are retold here after patent US6475507B1, “Sustained release compositions and the process for their preparation” (priority 1997, dated 2002).

The series in a line: Specific surface area of the active substance by the BET method. The class given is physicochemical. Conditions: peptide salt after lyophilization (or starting material). How it is done:
For all these examples, the inherent viscosities (IV) were measured by the conventional methods of flow time measurement, as described for example in “Pharmacopoée Européenne”, 1997, pages 17-18 (capillary tube method). Unless stated otherwise, these viscosities have been measured in chloroform at a concentration of 0.1% at 25° C. or in hexaisofluoropropanol at a concentration of 0.5% at 30° C. Where measured, the specific surface area of the active substance was determined by the so-called BET method (absorption of a nitrogen monolayer on the active substance), a method well known to a person skilled in the art.
As for `CC(C)[C@@H]1NC(=O)[C@H](CCCCN)NC(=O)[C@@H](Cc2c[nH]c3ccccc23)NC(=O)[C@H](Cc2ccc(O)cc2)NC(=O)[C@@H](NC(=O)[C@H](N)Cc2ccc3ccccc3c2)CSSC[C@@H](C(=O)N[C@H](C(N)=O)[C@@H](C)O)NC1=O` [Example 13, lanreotide acetate], the Specific surface area came to 36 m^2/g.
Then `CC(C)[C@@H]1NC(=O)[C@H](CCCCN)NC(=O)[C@@H](Cc2c[nH]c3ccccc23)NC(=O)[C@H](Cc2ccc(O)cc2)NC(=O)[C@@H](NC(=O)[C@H](N)Cc2ccc3ccccc3c2)CSSC[C@@H](C(=O)N[C@H](C(N)=O)[C@@H](C)O)NC1=O` [Example 14, lanreotide acetate], with 43 m^2/g.
For `CC(C)[C@@H]1NC(=O)[C@H](CCCCN)NC(=O)[C@@H](Cc2c[nH]c3ccccc23)NC(=O)[C@H](Cc2ccc(O)cc2)NC(=O)[C@@H](NC(=O)[C@H](N)Cc2ccc3ccccc3c2)CSSC[C@@H](C(=O)N[C@H](C(N)=O)[C@@H](C)O)NC1=O` [modified lanreotide acetate, lanreotide acetate] the value was 4.4 m^2/g; for “triptorelin acetate [modified triptorelin acetate]”, 4.7 m^2/g.
For “triptorelin acetate [unmodified triptorelin acetate, reference compound]”, the Specific surface area worked out at 0.8 m^2/g.
